Measurements as given in US9107926B2, “Mutant selectivity and combinations of a phosphoinositide 3-kinase inhibitor compound and chemotherapeutic agents for the treatment of cancer” (Genentech, Inc., priority 2012, dated 2015).

Experiments:
[1] = system: EVSA-T; experiment: CellTiter-Glo cell proliferation assay; type: cell-based; settings: Homo sapiens, Breast, PTEN
[2] = system: LN-229; experiment: CellTiter-Glo cell proliferation assay; type: cell-based; settings: Homo sapiens, Glioma, Helical-HET.545E > K
[3] = system: H661; experiment: CellTiter-Glo cell proliferation assay; type: cell-based; settings: Homo sapiens, NCI-H661, Lung(NSCLC), WT
[4] = system: MDA-MB-468; experiment: CellTiter-Glo cell proliferation assay; type: cell-based; settings: Homo sapiens, Breast, PTEN
[5] = system: H2171; experiment: CellTiter-Glo cell proliferation assay; type: cell-based; settings: Homo sapiens, NCI-H2171, Lung(SC), K-RAS
[6] = system: ZR75-30; experiment: CellTiter-Glo cell proliferation assay; type: cell-based; settings: Homo sapiens, ZR-75-30, Breast, WT
[7] = system: cancer cell lines; experiment: cell proliferation assays across cancer cell lines (FIGS. 1-3, 12); type: cell-based
Text: EC50 values were established for the experiments.

[8] = system: SKBR3; experiment: CellTiter-Glo cell proliferation assay; type: cell-based; settings: Homo sapiens, SK-BR-3, Breast, HER2 Amplified
Experimental: (§1) Cell Culture Medium: RPMI or DMEM high glucose, 10% Fetal Bovine Serum, 2 mM L-Glutamine, P/S. Incubate O/N (overnight) at 37° C., 5% CO2.
(§2) Drug Addition to Cells, Cell Plate (1:10 dilution): Add 6 μl of media+compound directly to cells (54 μl of media on the cells already). Incubate 3 days at 37° C., 5% CO2 in an incubator that will not be opened often.
(§3) Day 5—Develop Plates, Thaw Cell Titer Glo Buffer at room temperature: Remove Cell Plates from 37° C. and equilibrate to room temperature for about 30 minutes. Add Cell Titer-Glo® Buffer to Cell Titer-Glo® Substrate (bottle to bottle). Add 30 μl Cell Titer-Glo® Reagent (Promega cat.#G7572) to each well of cells. Place on plate shaker for about 30 minutes. Read luminescence on Analyst HT Plate Reader (half second per well).

[9] = system: Endocrine-resistant MCF7-ARO cells; experiment: 4 day CellTiter-Glo assay in endocrine resistant cells; type: cell-based, human; settings: obtained by letrozole dose escalation over about 4 months
[10] = system: LXFL-529; experiment: CellTiter-Glo cell proliferation assay; type: cell-based; settings: Homo sapiens, Lung(NSCLC), Helical-HET.542E > K
[11] = system: SW1783; experiment: CellTiter-Glo cell proliferation assay; type: cell-based; settings: Homo sapiens, Glioma, PTEN
[12] = system: H322; experiment: CellTiter-Glo cell proliferation assay; type: cell-based; settings: NCI-H322, Lung(NSCLC), WT
[13] = system: H1048; experiment: CellTiter-Glo cell proliferation assay; type: cell-based; settings: Homo sapiens, NCI-H1048, Lung(SC), Kinase-HET.1047H > R, HET.391I > M
[14] = system: KNS-62; experiment: CellTiter-Glo cell proliferation assay; type: cell-based; settings: Homo sapiens, Lung(NSCLC), K-RAS
[15] = system: PC3; experiment: CellTiter-Glo cell proliferation assay; type: cell-based; settings: Homo sapiens, PC-3, Prostate, PTEN
[16] = system: H596; experiment: CellTiter-Glo cell proliferation assay; type: cell-based; settings: Homo sapiens, NCI-H596, Lung(NSCLC), Helical-HET.545E > K, HET.997L > P
[17] = system: INK-134; experiment: CellTiter-Glo cell proliferation assay; type: cell-based; settings: Glioma, Helical-HET.545E > D, HET.1043M > I
[18] = system: HPAC; experiment: CellTiter-Glo cell proliferation assay; type: cell-based; settings: Homo sapiens, Pancreatic, K-RAS
[19] = system: G22; experiment: CellTiter-Glo cell proliferation assay; type: cell-based; settings: Glioma, PTEN
[20] = system: AU565; experiment: CellTiter-Glo cell proliferation assay; type: cell-based; settings: Homo sapiens, Breast, HER2 Amplified
[21] = system: H520; experiment: CellTiter-Glo cell proliferation assay; type: cell-based; settings: Homo sapiens, NCI-H520, Lung(NSCLC), PTEN
[22] = system: MO59J; experiment: CellTiter-Glo cell proliferation assay; type: cell-based; settings: Glioma, PTEN/KRAS
[23] = system: U-118MG; experiment: CellTiter-Glo cell proliferation assay; type: cell-based; settings: Homo sapiens, Glioma, PTEN
[24] = system: A549; experiment: CellTiter-Glo cell proliferation assay; type: cell-based; settings: Homo sapiens, Lung(NSCLC), K-RAS
[25] = system: HOP92; experiment: CellTiter-Glo cell proliferation assay; type: cell-based; settings: Homo sapiens, HOP-92, Lung(NSCLC), WT
[26] = system: 888-MEL; experiment: CellTiter-Glo cell proliferation assay; type: cell-based; settings: Homo sapiens, Melanoma, B-Raf
[27] = system: H522; experiment: CellTiter-Glo cell proliferation assay; type: cell-based; settings: Homo sapiens, NCI-H522, Lung(NSCLC), WT
[28] = system: U87MG; experiment: CellTiter-Glo cell proliferation assay; type: cell-based; settings: Homo sapiens, U-87 MG, Glioma, PTEN
[29] = system: MCF7-neo/HER2; experiment: CellTiter-Glo cell proliferation assay; type: cell-based; settings: Breast, Helical-HET.545E > K
Experimental: as §1, §2, §3

[30] = system: SF268; experiment: CellTiter-Glo cell proliferation assay; type: cell-based; settings: Homo sapiens, SF-268, Glioma, WT
[31] = system: HOP18; experiment: CellTiter-Glo cell proliferation assay; type: cell-based; settings: Homo sapiens, HOP-18, Lung(NSCLC), K-RAS
[32] = system: SW48 PIK3CA H1047R knock-in mutant subclone; experiment: four day CellTiter-Glo viability assay, SW48 isogenic cell line set; settings: Homo sapiens, SW48, 96 h, read-out: Viability EC50
Text: SW48 parental cells and knock-in mutant subclones harboring common PIK3CA hotspot mutations E545K or H1047R were obtained from Horizon Discovery.

[33] = system: HCC-1143; experiment: CellTiter-Glo cell proliferation assay; type: cell-based; settings: Homo sapiens, HCC1143, Breast, WT
[34] = system: EFM-19; experiment: CellTiter-Glo cell proliferation assay; type: cell-based; settings: Homo sapiens, Breast, Kinase-HOM.1047H > L
Experimental: as §1, §2, §3

[35] = system: HDQ-P1; experiment: CellTiter-Glo cell proliferation assay; type: cell-based; settings: Homo sapiens, Breast, WT
Experimental: as §1, §2, §3

[36] = system: 22RV1; experiment: CellTiter-Glo cell proliferation assay; type: cell-based; settings: Homo sapiens, Prostate, Helical-HET.546Q > R
[37] = system: MX-1; experiment: CellTiter-Glo cell proliferation assay; type: cell-based; settings: Homo sapiens, MX1, Breast, PTEN
Experimental: as §1, §2, §3

[38] = system: BT474; experiment: CellTiter-Glo cell proliferation assay; type: cell-based; settings: Homo sapiens, BT-474, Breast, HER2 Amplified
[39] = biological target: PI3K alpha E545K mutant (Homo sapiens, UniProt P42336, E545K); settings: relative to PI3K alpha
Chain of PI3K alpha E545K mutant (P42336 whole entry E545K): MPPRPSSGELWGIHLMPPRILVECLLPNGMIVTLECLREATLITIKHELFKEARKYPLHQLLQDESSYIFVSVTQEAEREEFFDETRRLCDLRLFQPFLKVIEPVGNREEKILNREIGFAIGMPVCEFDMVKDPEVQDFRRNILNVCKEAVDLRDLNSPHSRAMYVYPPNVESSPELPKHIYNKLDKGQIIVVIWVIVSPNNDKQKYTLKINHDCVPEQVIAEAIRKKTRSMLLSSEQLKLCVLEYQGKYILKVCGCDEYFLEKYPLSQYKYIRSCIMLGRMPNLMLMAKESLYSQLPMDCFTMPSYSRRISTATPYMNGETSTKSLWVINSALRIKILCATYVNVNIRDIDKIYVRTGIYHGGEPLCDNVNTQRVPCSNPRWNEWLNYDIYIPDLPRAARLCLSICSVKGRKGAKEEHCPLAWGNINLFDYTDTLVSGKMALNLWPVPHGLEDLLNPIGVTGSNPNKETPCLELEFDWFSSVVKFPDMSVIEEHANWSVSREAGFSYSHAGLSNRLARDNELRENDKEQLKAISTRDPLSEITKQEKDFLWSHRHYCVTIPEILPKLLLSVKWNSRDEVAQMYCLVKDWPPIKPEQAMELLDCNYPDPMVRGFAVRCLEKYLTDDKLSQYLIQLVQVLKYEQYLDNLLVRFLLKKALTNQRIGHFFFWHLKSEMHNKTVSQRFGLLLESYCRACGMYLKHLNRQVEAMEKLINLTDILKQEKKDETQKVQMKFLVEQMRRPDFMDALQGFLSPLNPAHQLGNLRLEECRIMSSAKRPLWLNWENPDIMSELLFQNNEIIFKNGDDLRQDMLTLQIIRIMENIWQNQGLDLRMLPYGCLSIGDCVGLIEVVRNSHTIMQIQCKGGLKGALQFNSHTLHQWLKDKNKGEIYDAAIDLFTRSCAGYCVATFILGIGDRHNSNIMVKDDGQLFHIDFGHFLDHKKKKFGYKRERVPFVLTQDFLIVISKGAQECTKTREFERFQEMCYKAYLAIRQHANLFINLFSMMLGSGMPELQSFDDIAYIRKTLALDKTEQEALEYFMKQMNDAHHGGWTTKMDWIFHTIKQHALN
Chain of PI3K alpha E545K mutant (P27986 whole entry partner): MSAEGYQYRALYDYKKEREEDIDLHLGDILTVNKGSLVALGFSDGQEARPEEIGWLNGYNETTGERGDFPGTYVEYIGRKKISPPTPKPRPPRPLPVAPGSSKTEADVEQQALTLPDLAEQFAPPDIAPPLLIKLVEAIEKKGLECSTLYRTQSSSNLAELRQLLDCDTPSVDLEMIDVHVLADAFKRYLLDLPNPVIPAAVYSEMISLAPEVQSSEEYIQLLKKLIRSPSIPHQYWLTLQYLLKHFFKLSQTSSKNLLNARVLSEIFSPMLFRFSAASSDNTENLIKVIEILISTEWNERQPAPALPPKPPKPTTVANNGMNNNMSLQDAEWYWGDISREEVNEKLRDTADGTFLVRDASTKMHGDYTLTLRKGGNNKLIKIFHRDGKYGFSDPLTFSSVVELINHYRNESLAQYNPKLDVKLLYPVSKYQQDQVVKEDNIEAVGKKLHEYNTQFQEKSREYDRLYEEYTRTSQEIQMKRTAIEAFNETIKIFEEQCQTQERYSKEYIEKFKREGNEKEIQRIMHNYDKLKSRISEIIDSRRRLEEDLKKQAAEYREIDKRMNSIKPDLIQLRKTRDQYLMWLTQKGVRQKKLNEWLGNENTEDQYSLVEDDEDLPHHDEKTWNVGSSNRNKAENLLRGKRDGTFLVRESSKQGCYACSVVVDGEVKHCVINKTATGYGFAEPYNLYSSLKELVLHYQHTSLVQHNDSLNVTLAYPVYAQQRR
Experimental: After an incubation time of 30 minutes at room temperature, the reactions were stopped by the addition of GRP-1 and PIP3-TAMRA probe (Echelon-Inc., Salt Lake City, Utah.) 100 nM and 5 nM final concentrations respectively. Read with standard cut-off filters for the rhodamine fluorophore (λex=530 nm; λem=590 nm) in 384-well black low volume Proxiplates® (PerkinElmer, Wellesley, Mass.) Fluorescence polarization values were plotted as a function of the protein concentration. EC50 values were obtained by fitting the data to a four-parameter equation using KaleidaGraph® software (Synergy software, Reading, Pa.). This experiment also establishes the appropriate protein concentration to use in subsequent competition experiments with inhibitors.
After an incubation time of 30 minutes at room temperature, the reactions were stopped by the addition of GRP-1 and PIP3-TAMRA probe (Echelon-Inc., Salt Lake City, Utah.) 100 nM and 5 nM final concentrations respectively.
The compound was serially diluted in 100% DMSO. The kinase reaction was incubated for 1 h at room temperature, and the reaction was terminated by the addition of PBS. IC50 values were subsequently determined using sigmoidal dose-response curve fit (variable slope).

[40] = system: KPL4; experiment: CellTiter-Glo cell proliferation assay; type: cell-based; settings: Breast, Kinase-HET.1047H > R, HET.350D > N
Experimental: as §1, §2, §3

[41] = system: H2009; experiment: CellTiter-Glo cell proliferation assay; type: cell-based; settings: Homo sapiens, NCI-H2009, Lung(NSCLC), K-RAS

With `Cc1nc(-c2cn3c(n2)-c2ccc(-c4cnn(C(C)(C)C(N)=O)c4)cc2OCC3)n(C(C)C)n1` [GDC-0032, 2-(4-(2-(1-isopropyl-3-methyl-1H-1,2,4-triazol-5-yl)-5,6-dihydrobenzo[f]imidazo[1,2-d][1,4]oxazepin-9-yl)-1H-pyrazol-1-yl)-2-methylpropanamide] the EC50 [1] was 1120 nM, the EC50 [2] was 3410 nM and the EC50 [3] was 497 nM. For the same compound, the EC50 [4] was 7880 nM, the EC50 [5] was 1450 nM and the EC50 [6] was 21 nM. For the same compound, the “sensitivity of cancer cell lines with HER2 amplification versus those without HER2 amplification” value ([7]; EC50, cell proliferation assays) was “about 44 times”, the “potency against PIK3CA mutant and HER2+ cells (comparison)” value ([7]; FIGS. 1A, 1B, 2A, 2B) was “more potent against PIK3CA mutant cells and HER2+ breast cancer cells than GDC-0941” and the EC50 [8] was 43 nM. For the same compound, the “sensitivity of endocrine-resistant cells” value [9] was “sensitive to GDC-0032”, the EC50 [10] was 57 nM and the EC50 [11] was 3110 nM. For the same compound, the EC50 [12] was 280 nM, the EC50 [13] was 14 nM and the EC50 [14] was 3560 nM. It also gave an EC50 [15] of 864 nM, an EC50 [16] of 58 nM and an EC50 [17] of 976 nM. The EC50 [18] was 645 nM, the EC50 [19] was 6020 nM and the EC50 [20] was 93 nM. It also gave an EC50 [21] of 264 nM, an EC50 [22] of 5650 nM and an EC50 [23] of 3200 nM. It also gave an EC50 [24] of 906 nM, an EC50 [25] of 1690 nM and an EC50 [26] of 10000 nM. For the same compound, the EC50 [27] was 10000 nM, the EC50 [28] was 1020 nM and the EC50 [29] was 178 nM. For the same compound, the EC50 [30] was 1070 nM, the EC50 [31] was 77 nM and the EC50 [32] was 8 nM. For the same compound, the EC50 [33] was 2970 nM, the EC50 [34] was 13 nM and the EC50 [35] was 258 nM. For the same compound, the EC50 [36] was 50 nM, the EC50 [37] was 892 nM and the EC50 [38] was 84 nM. For the same compound, the “PI3K alpha E545K mutant” value [39] was 0.4x, the EC50 [40] was 16 nM and the EC50 [41] was 710 nM.
